In general, inhibition refers to how much of the control response was suppressed.

Each structure is given as a SMILES string.

Our source for the inhibition values is publication PMC8811433 (The Journal of International Medical Research, 2022).

The assay deals with Lysine-specific demethylase 1 (LSD1) (Homo sapiens, UniProt O60341). The experiment in a line: in vitro LSD1 activity assay. It counts as biochemical. As to conditions: read-out: % inhibition at 1000 nM.

Consider `C=C1C(=O)O[C@H]2[C@H]1[C@H](OC(=O)/C(C)=C/CO)CC(=C)[C@@H]1C=C[C@@](C)(O)[C@H]21` [eupalinilide B], for which the inhibition at 1 µM was found to be 78%.
